Data: patent publication US9453016B2, “Terpenoid spiro ketal compounds with LXR agonists activity, their use and formulations with them” (priority 2010, dated 2016)

What was measured:
LXRα = LXRα (Homo sapiens, UniProt Q13133); assay: LXR HTR-FRET coactivator (b-SRC1) recruitment assay, LXRα; assay type: biochemical; conditions: FRET 12-point dose response, GST-LXR LBD
Source text: (§1) The LXR assay is configured using time-resolved fluorescence resonance energy transfer technology (HTR-FRET) (see Albers et al., J. Biol. Chem. 2006 24; 281(8) 4920-30; Chin J, Assay Drug Dev. Technol. 2003 1(6):777-87).
(§2) In the presence of an agonist, a fusion protein of glutathione S-transferase (GST) and LXR ligand binding domain (GST-LXR LBD) associates with a biotin-labeled nuclear receptor coactivator (b-SRC1). A fluorescent signal is detected in the presence of Eu-labeled anti GST antibodies and streptavidin-labeled allophycocyanin (APC). FRET is made possible by agonist-dependent close interaction of the test proteins.
(§3) Compounds which act as agonists at the LXR ligand binding domain were detected by an increase in time-resolved fluorescence. This LXR-FRET was performed as described by Albers et al. (loc. cit.).
(§4) FRET-active compounds were assayed in a FRET 12-point dose response experiment to determine the EC50—values of the compounds mentioned in the following Table 5.

LXRβ = LXRβ (Homo sapiens, UniProt P55055); assay: LXR HTR-FRET coactivator (b-SRC1) recruitment assay, LXRβ; assay type: biochemical; conditions: FRET 12-point dose response, GST-LXR LBD
Source text: as §1, §2, §3, §4

liver cancer cell lines = conditions: cited from earlier work
lung cancer cells = conditions: cited from earlier work
[1] = system: female APOE*3-Leiden(E3L).CETP transgenic mice; assay: Pooled lipoprotein profiles (FPLC) in APOE*3Leiden.CETP mice; assay type: in vivo; conditions: after 5 weeks of treatment, pooled plasma per group
[2] = system: female APOE*3-Leiden(E3L).CETP transgenic mice; assay: Plasma lipids in APOE*3Leiden.CETP transgenic mice on Western-type diet; assay type: in vivo; conditions: for Plasma cholesterol: mean ± SD of 10 mice
Source text: The aim of the study was to evaluate the effects of extract IMD-XT0022 (see example 1c) on plasma lipids in female APOE*3-Leiden(E3L).CETP transgenic mice (hereinafter referred to as APOE*3Leiden mice). The effects were compared with phytosterol as a positive control.
Forty female APOE*3Leiden mice (from the specific pathogen free breeding stock at TNO-Metabolic Health Research, Leiden, Netherlands), 15-16 weeks of age at the start of the experiment were housed during the experiment in Macrolon® cages (maximally 5 animals per cage) in clean-conventional animal rooms (relative humidity 50-60%, temperature about 21° C., light cycle 7 am to 7 pm). Individual mice were marked by ear-punch holes and supplied with food and acidified tap water ad libitum. Dietary ingredients were provided by Hope Farms (Woerden, the Netherlands): The mice received a semi-synthetic modified Western-type diet (WTD) as described by Nishina et al., J. Lipid. Res. 1990:31:859, containing cholesterol (0.1% w/w, final concentration) and saturated fat (15% w/w cacao butter). The animals were put on a Western-type diet with 0.1% cholesterol for 4 weeks (run-in period). After the run-in period, APOE*3Leiden mice were sub-divided into three groups of 10 mice each and treated during 5 weeks with the following compounds: Control group (vehicle gavage, Western-type diet without diet additions), extract group (Western-type diet without diet additions, 100 mg/kg/d extract IMD-XT0022 via daily gavage) or phytosterol group (vehicle gavage, Western-type diet with addition of 1 wt. % of free phytosterol). One week before first administration of IMD-XT0022 mice were gavaged with vehicle to get used to the procedure. Food intake and body weight were measured weekly during the treatment period (t=0, 1, 2, 3, 4 and 5 weeks). After two and five weeks of treatment blood samples were taken after a 4 hour fasting period. After 3 weeks of treatment vehicle Delios V oil (a medium-chain triglyceride oil obtained from BASF Personal Care and Nutrition GmbH, Düsseldorf, Germany) was replaced by Polyethylengycol-400 (PEG-400, Sigma-Aldrich, Steinheim, Germany) for all groups.
Extract IMD-XT0022 was administered daily by oral gavage between 8.00 and 11.00 am CET. In the phytosterol group phytosterol was administered orally as admix to the WTD (1% w/w free phytosterol). The control group and the phytosterol group received the vehicle accordingly. The gavage volume during the treatment period was 10 ml/kg and was adjusted weekly based on the measured body weight of the respective week.
Plasma cholesterol, triglycerides and HDL cholesterol were measured individually at t=0, 2 and 5 weeks. On group level ALT, AST levels and lipoprotein profiles (at t=0 and 5 weeks) were measured. Feces were collected (per cage) during week 5.
On the mornings of the blood sampling time points of t=weeks 2 and t=5 weeks, gavages were not performed between 8.00-11.00 am, but were performed after the blood sampling. At t=5 weeks, 3 days after the last blood sampling, mice were sacrificed after a 4 hour fasting period (and without giving a gavage on the day of sacrifice) by CO2 suffocation. EDTA-plasma was collected via heart puncture and stored at <−70° C. and several organs were collected.
After a 4 weeks run-in period, 10 low-responder mice were removed from the study. The remaining 30 mice where subdivided into 3 groups of 10 mice each, matched for body weight, plasma cholesterol, triglycerides, HDL-cholesterol and age (t=0) […]

Chain of LXRβ (P55055 222-460 limits assumed): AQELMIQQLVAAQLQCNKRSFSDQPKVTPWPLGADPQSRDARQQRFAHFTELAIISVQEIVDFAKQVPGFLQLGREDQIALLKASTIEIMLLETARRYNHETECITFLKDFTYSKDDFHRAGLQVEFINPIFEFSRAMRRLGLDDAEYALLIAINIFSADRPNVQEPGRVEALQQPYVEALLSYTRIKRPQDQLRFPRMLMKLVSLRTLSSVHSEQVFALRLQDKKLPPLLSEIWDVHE
Chain of LXRβ (Q15788 whole entry partner, the tested form may be a part): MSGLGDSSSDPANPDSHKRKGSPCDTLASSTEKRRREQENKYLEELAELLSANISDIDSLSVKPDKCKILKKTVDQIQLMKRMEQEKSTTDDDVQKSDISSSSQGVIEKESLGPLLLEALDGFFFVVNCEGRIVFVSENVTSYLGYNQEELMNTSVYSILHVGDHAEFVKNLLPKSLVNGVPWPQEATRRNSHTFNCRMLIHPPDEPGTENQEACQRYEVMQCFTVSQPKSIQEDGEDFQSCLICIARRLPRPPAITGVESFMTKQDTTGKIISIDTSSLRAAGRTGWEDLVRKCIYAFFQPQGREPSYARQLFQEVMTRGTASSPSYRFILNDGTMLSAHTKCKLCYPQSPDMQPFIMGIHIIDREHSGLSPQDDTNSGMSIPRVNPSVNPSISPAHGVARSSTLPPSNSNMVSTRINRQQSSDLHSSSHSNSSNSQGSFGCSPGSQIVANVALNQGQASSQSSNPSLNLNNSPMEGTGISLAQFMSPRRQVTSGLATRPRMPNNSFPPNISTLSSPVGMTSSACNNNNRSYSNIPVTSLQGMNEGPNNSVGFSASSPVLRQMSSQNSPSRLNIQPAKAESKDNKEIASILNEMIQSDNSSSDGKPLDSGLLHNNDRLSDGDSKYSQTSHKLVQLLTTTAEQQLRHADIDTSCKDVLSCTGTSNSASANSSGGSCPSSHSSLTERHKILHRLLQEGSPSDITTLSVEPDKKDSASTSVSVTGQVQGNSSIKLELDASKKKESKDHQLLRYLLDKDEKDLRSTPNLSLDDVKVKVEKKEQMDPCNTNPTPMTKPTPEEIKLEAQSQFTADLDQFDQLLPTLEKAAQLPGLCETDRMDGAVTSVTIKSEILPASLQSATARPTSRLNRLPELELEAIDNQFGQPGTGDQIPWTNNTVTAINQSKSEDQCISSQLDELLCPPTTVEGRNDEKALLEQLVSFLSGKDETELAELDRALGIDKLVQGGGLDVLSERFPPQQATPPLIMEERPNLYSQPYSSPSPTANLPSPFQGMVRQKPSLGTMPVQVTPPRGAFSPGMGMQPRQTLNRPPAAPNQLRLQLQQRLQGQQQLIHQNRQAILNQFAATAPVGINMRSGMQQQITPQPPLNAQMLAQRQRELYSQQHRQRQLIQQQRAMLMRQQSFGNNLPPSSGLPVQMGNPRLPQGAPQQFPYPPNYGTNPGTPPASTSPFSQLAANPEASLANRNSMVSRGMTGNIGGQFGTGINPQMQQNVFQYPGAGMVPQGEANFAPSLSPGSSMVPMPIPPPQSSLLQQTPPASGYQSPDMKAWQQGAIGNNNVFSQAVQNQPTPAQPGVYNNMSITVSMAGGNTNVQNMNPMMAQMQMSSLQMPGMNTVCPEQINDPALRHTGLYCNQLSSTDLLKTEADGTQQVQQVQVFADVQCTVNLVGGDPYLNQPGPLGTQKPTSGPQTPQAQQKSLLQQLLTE
Chain of LXRα (Q13133 209-447 limits assumed): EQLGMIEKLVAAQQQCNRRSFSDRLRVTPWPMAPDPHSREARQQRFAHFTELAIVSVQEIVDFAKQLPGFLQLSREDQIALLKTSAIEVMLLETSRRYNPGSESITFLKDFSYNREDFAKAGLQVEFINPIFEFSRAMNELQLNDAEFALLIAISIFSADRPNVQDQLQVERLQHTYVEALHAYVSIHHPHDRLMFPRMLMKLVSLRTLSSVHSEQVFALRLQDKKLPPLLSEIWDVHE
Chain of LXRα (Q15788 whole entry partner, the tested form may be a part): as the sequence (Q15788 whole entry partner, the tested form may be a part) above

EC50 (LXRα) [µM]	EC50 (LXRβ) [µM]	Molecule	further results
31	34	COc1ccc2c(c1C)C=C[C@@]1(C)[C@]23CC[C@]1(O)[C@H](C)[C@]1(OC(C)(C)[C@@H](C)[C@H]1O)O3 [Compound 7, (2S,3S,3′R,4R,4′S,4aR,10bR)-4,4′,4a,5′-Tetrahydro-17-hydroxy-8-methoxy-3,4′,4a,5′,5′,7-hexamethyl-spiro[4,10b-ethano-10bH-naphtho[1,2-b]pyran-2(3H),2′(3′H)-furan]-3′-ol]	–
11	24	COc1ccc2c(c1CO)C=C[C@]1(C)[C@@H]3CC[C@]21O[C@@]1(OC(C)(C)[C@@H](C)[C@H]1O)[C@H]3C [Compound 3, (2S,3S,3′R,4R,4′S,4aR,10bR)-4,4′,4a,5′-Tetrahydro-3′-hydroxy-8-methoxy-3,4′,4a,5′,5′-pentamethyl-spiro[4,10b-ethano-10bH-naphtho[1,2-b]pyran-2(3H),2′(3′H)-furan]-7-methanol]	–
1.4	25	COc1ccc2c(c1C)C=C[C@]1(C)[C@@H]3CC[C@]21O[C@@]1(OC(C)(C)[C@@H](C)[C@H]1O)[C@H]3C [Compound 1, (2S,3S,3′R,4R,4′S,4aR,10bR)-4,4′,4a,5′-Tetrahydro-8-methoxy-3,4′,4a,5′,5′,7-hexamethyl-spiro[4,10b-ethano-10bH-naphtho[1,2-b]pyran-2(3H),2′(3′H)-furan]-3′-ol]	Biological activities against liver cancer cell lines (liver cancer cell lines): confirmed the biological activities
–	–	CO[C@@H]1C=C2C3CC[C@H](C(C)/C=C/C(C)C(C)C)[C@@]3(C)CC[C@@H]2[C@@]2(C)CC[C@H](O)C[C@]12O (stereo partly drawn) [blazein]	Apoptosis in lung cancer cells (lung cancer cells): induced apoptosis
1.1	5.5	Cc1c(O)ccc2c1C=C[C@]1(C)[C@@H]3CC[C@]21O[C@@]1(OC(C)(C)[C@@H](C)[C@H]1O)[C@H]3C [Compound 2, (2S,3S,3′R,4R,4′S,4aR,10bR)-4,4′,4a,5′-tetrahydro-3,4′,4a,5′,5′,7-hexamethyl-spiro[4,10b-ethano-10bH-naphtho[1,2-b]pyran-2(3H),2′(3′H)-furan]-3′,8-diol]	–
24	31	COc1ccc2c(c1C)CC(=O)[C@]1(C)[C@@H]3CC[C@]21O[C@@]1(OC(C)(C)[C@@H](C)[C@H]1O)[C@H]3C [Compound 8, (2S,3S,3′R,4R,4aR,4′S,10bS)-3′-hydroxy-8-methoxy-3,4a,4′,5′,5′,7-hexamethyl-4,4a,4′,5′-tetrahydro-3H,3′H-spiro[4,10b-ethanobenzo[h]chromene-2,2′-furan]-5(6H)-one]	–
–	–	COc1ccc2c(c1C)CC[C@]1(C)[C@@H]3CC[C@]21O[C@@]1(OC(C)(C)[C@@H](C)[C@H]1O)[C@H]3C [Compound 14, (2S,3S,3′R,4R,4aR,4′S,10bR)-8-methoxy-3,4a,4′,5′,5′,7-hexamethyl-4,4a,4′,5,5′,6-hexahydro-3H,3′H-spiro[4,10b-ethanobenzo[h]chromene-2,2′-furan]-3′-ol]	Biological activities against liver cancer cell lines (liver cancer cell lines): confirmed the biological activities
–	–	phytosterol	Decrease in the area under the curve of the VLDL peak, cholesterol [1]: 25%; Decrease in the area under the curve of the VLDL peak, phospholipid [1]: 21%; Decrease of plasma cholesterol as compared to the control group ([2]; after 5 weeks of treatment): 16%; Decrease of plasma triglycerides as compared to the control group ([2]; after 5 weeks of treatment): 36%; Plasma HDL, effect as compared to the control group ([2]; mouse, in vivo): not affected; Plasma cholesterol ([2]; t = 0 weeks (after run-in, before treatment)): 10.9 ± 1.6 mM; Plasma cholesterol ([2]; t = 2 weeks of treatment, extract 100 mg/kg/d gavage, phytosterol 1 wt.% in diet): 9.4 ± 1.3 mM; Plasma cholesterol ([2]; t = 5 weeks of treatment, extract 100 mg/kg/d gavage, phytosterol 1 wt.% in diet): 8.1 ± 1.8 mM

Molecule	EC50 (LXRα) [µM]	EC50 (LXRβ) [µM]	further results
C[C@H]1[C@@H](O)[C@@]2(OC1(C)C)O[C@]13CC[C@H]([C@@H]2C)[C@@]1(C)[C@H](O)C=C1C3=CC(=O)C2=CC(=O)CC[C@@]21C [Compound 9, (1R,2S,2′S,3′R,4aS,4′S,10aR,12R,12aS)-3′,12-dihydroxy-2,4′,5′,5′,10a,12a-hexamethyl-4′,5′,10,10a,12,12a-hexahydro-1H,3′H-spiro[1,4a-ethanonaphtho[1,2-h]chromene-3,2′-furan]-6,8(2H,9H)-dione]	1	4.6	–
C[C@H]1[C@H](O)[C@@]2(OC1(C)C)O[C@]13CC[C@H]([C@@H]2C)[C@@]1(C)C=CC1=C3C=CC2=CC(=O)CC[C@@]21C [Compound 6, (14β,22S,23S)-14,22:22,25-Diepoxy-23-hydroxy-ergosta-4,6,8,11-tetraen-3-one]	5.5	14	–
C[C@H]1[C@@H](O)[C@]2(OC1(C)C)O[C@]13CC[C@H]([C@@H]2C)[C@@]1(C)CC=C1C3=CC(=O)C2=CC(=O)CC[C@@]21C [Compound 5, (14β,22S,23R)-14,22:22,25-Diepoxy-23-hydroxy-ergosta-4,7,9-triene-3,6-dione]	7.6	24	–
